Measured values from article PMC11944670, “Reshaping [^99mTc]Tc-DT11 to DT14D Tagged with Trivalent Radiometals for NTS1R-Positive Cancer Theranostics” (Pharmaceutics, 2025).
Residues, ends and D or L forms follow the SMILES beside them. *: point of attachment. DOTA = O=C(O)CN1CCN(CC(=O)O)CCN(CC(=O)*)CCN(CC(=O)O)CC1; X1 = Cc1ccc(CCCC(=O)NCCOCCOCCOCCOCC(=O)*)cc1; βAla = NCCC(=O)O

Assays:
human NTS1R = target: T1, human NTS1R (Homo sapiens, UniProt P30989); experiment: Competitive binding against [125I]I-Tyr3-NT in WiDr cell membrane homogenates; details: displacement of [125I]I-Tyr3-NT, WiDr cell membranes, mean ± sd, n = 3
T1 construct: in membrane homogenates obtained from WiDr cells; endogenous in cells; host or cells: WiDr cells (membrane homogenates)
T1 sequence (P30989 whole entry): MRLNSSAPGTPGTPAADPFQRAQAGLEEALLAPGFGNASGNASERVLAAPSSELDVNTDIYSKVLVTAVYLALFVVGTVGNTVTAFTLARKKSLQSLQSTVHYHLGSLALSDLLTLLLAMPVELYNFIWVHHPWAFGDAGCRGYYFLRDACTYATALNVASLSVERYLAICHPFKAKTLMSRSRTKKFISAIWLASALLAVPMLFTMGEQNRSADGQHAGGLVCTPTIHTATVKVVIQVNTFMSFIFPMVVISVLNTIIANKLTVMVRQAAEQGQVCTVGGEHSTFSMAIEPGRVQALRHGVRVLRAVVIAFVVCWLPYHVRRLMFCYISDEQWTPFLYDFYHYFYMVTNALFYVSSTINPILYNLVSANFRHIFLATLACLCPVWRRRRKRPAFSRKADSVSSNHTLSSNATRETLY
Protocol: The affinity of metal-free D[…] and metal-tagged [^natGa]Ga/[^natIn]In/[^natLu]Lu-D[…] (Supplementary Materials) for the human NTS1R was evaluated via competitive binding assays. These assays were performed using the [^125I]I-Tyr^3-NT radioligand in membrane homogenates obtained from WiDr cells, which were stored at -80 °C in 100 μL aliquots of Tris/EDTA buffer (10 mM Tris, 0.1 mM EDTA, pH 7.4). On the day of the experiment, the membrane homogenates were thawed, combined, and diluted in ice-cold binding buffer (BB: 50 mM HEPES, 5.5 mM MgCl2, 0.1 mg/mL bacitracin, 1% w/v BSA, pH 7.4). Each of the above ligands (including NT as a control) was incubated in triplicate at increasing concentrations (ranging from 10^-13 M to 10^-6 M in BB, 30 μL) with [^125I]I-Tyr^3-NT (214 pM in 70 μL BB) and membrane homogenate (300 μL in BB) for 1 h at 22 °C in an Incubator-Orbital Shaker unit (MPM Instr. SrI, Bernareggio, Milan, Italy). […] The filters were washed with ice-cold washing buffer (WB, 10 mM HEPES pH 7.4, 150 mM NaCl), collected individually, placed in separate RIA tubes, and measured for their radioactivity content in a gamma counter (automated multi-sample well-type instrument with a NaI(Tl) 3'' crystal, Canberra Packard Cobra^TM Quantum U5003/1, Auto-Gamma® counting system; Canberra Packard Central Europe GmbH, Schwadorf, Austria). […]

in vivo = experiment: in vivo; parameters: species or system mice; details: male, SCID, mouse, iv, total radioactivity; for tissue uptake at 48 h / tissue uptake at 72 h: Biodistribution
Protocol: The distribution of [^67Ga]Ga/[^111In]In/[^177Lu]Lu-DT14D was investigated in male severe combined immunodeficiency (SCID) mice (49 mice in total, 6 weeks of age on arrival date, 22 ± 4 g, NCSR “Demokritos” Animal House, Athens, Greece) bearing NTS1R-positive AsPC-1 xenografts in their flanks. For xenograft induction, suspensions of freshly harvested AsPC-1 cells (5 × 10^6 cells in 150 µL sterile PBS) were subcutaneously injected into the mice’s flanks. The animals were kept under aseptic conditions and 4 weeks later developed well palpable masses at the inoculation sites (100 ± 50 mg) and biodistribution was conducted. On the day of the experiment, the animals received a bolus (100 μL, in vehicle: saline/EtOH 9/1 v/v) containing the radioligand via the tail vein. The following groups of four animals per time point, per treatment, were included per radioligand (the 4 h block groups comprised 3 animals instead) including the respective (radio)ligand amounts injected: i. 78–91 kBq [^67Ga]Ga-DT14D corresponding to 7–17 pmol DT14D at 1 and 4 h pi plus 4 h block (coinjection with 100 µg NT); ii. 74–92 kBq [^111In]In-DT14D corresponding to 20–25 pmol at 4 h (controls), 4 h pi (Entresto®; animals receiving a slurry of 12 mg/200 µL Entresto® oral gavage 30 min in advance) and 4 h block (coinjection with 100 µg NT); 24 h pi (including both controls and Entresto® mice groups); and iii. 730 kBq [^177Lu]Lu-DT14D corresponding to 40 pmol DT14D at 4, 24, 48, and 72 h pi plus 4 h block (co-injection with 100 µg NT). The animals were euthanized at predetermined time intervals, dissected and blood samples, organs of interest, and tumors were collected, weighed, and counted in the gamma counter. Biodistribution data were calculated as percent of the injected activity per gram tissue (%IA/g) with the aid of suitable standards of the administered activity. Results as the mean %IA/g values ± sd were obtained and statistical analysis was performed with PRISM^TM GraphPad—10.2 Software (San Diego, CA/USA), applying 2-way ANOVA with Tukey’s post hoc analysis, or, in the case of two variables, Šídák’s multiple comparisons test was adopted; differences with p < 0.05 were considered as statistically significant.

[1] = 730 kBq, Tumor/Intestines ratio

## CC[C@H](C)[C@H](NC(=O)[C@H](Cc1ccc(O)cc1)NC(=O)[C@@H]1CCCN1C(=O)[C@H](CCCNC(=N)N)NC(=O)[C@H](CCCNC(=N)N)NC(=O)[C@H](CCCCNC(=O)COCCOCCOCCOCCNC(=O)CCCc1ccc(C)cc1)NC(=O)CCNC(=O)CCNC(=O)CCNC(=O)CN1CCN(CC(=O)O)CCN(CC(=O)O)CCN(CC(=O)O)CC1)C(=O)N[C@@H](CC(C)C)C(=O)O [DT14D, DOTA-βAla-βAla-βAla-Lys(MPBA-PEG4)^7-Arg-Arg-Pro-Tyr-Ile-Leu-OH] ({DOTA-βAla-βAla-βAla}-K(X1)RRPYIL-OH)
Human NTS1R
  IC50: 2.56 ± 0.26 nM

## CC[C@H](C)[C@H](NC(=O)[C@H](Cc1ccc(O)cc1)NC(=O)[C@@H]1CCCN1C(=O)[C@H](CCCNC(=N)N)NC(=O)[C@H](CCCNC(=N)N)NC(=O)[C@H](CCCCNC(=O)COCCOCCOCCOCCNC(=O)CCCc1ccc(C)cc1)NC(=O)CCNC(=O)CCNC(=O)CCNC(=O)CN1CCN(CC(=O)O)CCN(CC(=O)O)CCN(CC(=O)O)CC1)C(=O)N[C@@H](CC(C)C)C(=O)O [[^177Lu]Lu-DT14D, metal not drawn] ({DOTA-βAla-βAla-βAla}-K(X1)RRPYIL-OH)
In vivo; 40 pmol, Tumor/Blood ratio
  tissue to tissue ratio at 72 h: 29.8 ± 7.43
In vivo; 40 pmol, Tumor/Liver ratio
  tissue to tissue ratio at 48 h: 1.63 ± 0.14
  tissue to tissue ratio at 72 h: 1.44 ± 0.19
In vivo; 40 pmol, Tumor/Lungs ratio
  tissue to tissue ratio at 48 h: 11.4 ± 1
  tissue to tissue ratio at 72 h: 9.66 ± 1.43
In vivo; 40 pmol, Tumor/Pancreas ratio
  tissue to tissue ratio at 48 h: 20.4 ± 1.96
  tissue to tissue ratio at 72 h: 16.2 ± 5.04
In vivo; 730 kBq, AsPC-1 Tumor
  tissue uptake at 48 h: 1.56 ± 0.17 %ID/g
  tissue uptake at 72 h: 1.24 ± 0.2 %ID/g
In vivo; 730 kBq, Blood
  tissue uptake at 48 h: 0.05 ± 0.01 %ID/g
  tissue uptake at 72 h: 0.04 %ID/g
In vivo; 730 kBq, Femur
  tissue uptake at 48 h: 0.38 ± 0.03 %ID/g
  tissue uptake at 72 h: 0.35 ± 0.03 %ID/g
In vivo; 730 kBq, Heart
  tissue uptake at 48 h: 0.07 ± 0.01 %ID/g
  tissue uptake at 72 h: 0.06 ± 0.01 %ID/g
In vivo; 730 kBq, Intestines
  tissue uptake at 48 h: 0.36 ± 0.01 %ID/g
  tissue uptake at 72 h: 0.27 ± 0.02 %ID/g
In vivo; 730 kBq, Kidneys
  tissue uptake at 48 h: 0.88 ± 0.06 %ID/g
  tissue uptake at 72 h: 0.57 ± 0.15 %ID/g
In vivo; 730 kBq, Liver
  tissue uptake at 48 h: 0.96 ± 0.05 %ID/g
  tissue uptake at 72 h: 0.86 ± 0.1 %ID/g
In vivo; 730 kBq, Lungs
  tissue uptake at 48 h: 0.14 %ID/g
  tissue uptake at 72 h: 0.13 ± 0.04 %ID/g
In vivo; 730 kBq, Muscle
  tissue uptake at 48 h: 0.04 ± 0.01 %ID/g
  tissue uptake at 72 h: 0.04 ± 0.02 %ID/g
In vivo; 730 kBq, Pancreas
  tissue uptake at 48 h: 0.07 ± 0.01 %ID/g
  tissue uptake at 72 h: 0.08 ± 0.02 %ID/g
In vivo; 730 kBq, Spleen
  tissue uptake at 48 h: 1.6 ± 0.58 %ID/g
  tissue uptake at 72 h: 1.49 ± 0.51 %ID/g
In vivo; 730 kBq, Stomach
  tissue uptake at 48 h: 0.07 ± 0.01 %ID/g
  tissue uptake at 72 h: 0.04 ± 0.01 %ID/g
In vivo; 730 kBq, Tumor/Blood ratio
  tissue to tissue ratio at 48 h: 30.9 ± 3.67
In vivo; 730 kBq, Tumor/Heart ratio
  tissue to tissue ratio at 48 h: 23 ± 2.32
  tissue to tissue ratio at 72 h: 20.1 ± 3.03
In vivo; [1]
  tissue to tissue ratio at 48 h: 4.28 ± 0.33
  tissue to tissue ratio at 72 h: 4.65 ± 0.91
In vivo; 730 kBq, Tumor/Kidneys ratio
  tissue to tissue ratio at 48 h: 1.78 ± 0.3
  tissue to tissue ratio at 72 h: 2.26 ± 0.49
In vivo; 730 kBq, Tumor/Muscle ratio
  tissue to tissue ratio at 48 h: 39.2 ± 5.49
  tissue to tissue ratio at 72 h: 36.1 ± 14.6
In vivo; 730 kBq, Tumor/Spleen ratio
  tissue to tissue ratio at 48 h: 1.1 ± 0.51
  tissue to tissue ratio at 72 h: 0.89 ± 0.25
In vivo; 730 kBq, Tumor/Stomach ratio
  tissue to tissue ratio at 48 h: 23.8 ± 2.17
  tissue to tissue ratio at 72 h: 26.6 ± 5.58
